Measured values from the OligoGym collection.
“And” between values parts separate entries of the source, which are not always exact repeats. Equal values may be shown once. After the bases stand the sugars from the 5' end (letter, count) and the backbone: PS all phosphorothioate, else s phosphorothioate and o phosphodiester by linkage. Methylation of C is not given here. e = 2'-O-(2-methoxyethyl) (MOE); d = 2'-deoxy (DNA)

Target: DGAT2
Conditions: ASO

| Sequence | target mRNA inhibition (HepG2, 2.5 µM) | target mRNA inhibition (HepG2, 10 µM) | target mRNA inhibition (HepG2, 0.12 µM) | target mRNA inhibition (HepG2, 20 µM) |
| --- | --- | --- | --- | --- |
| CTGCGCGATTCACTGAGGAC (sugars e5 d10 e5, PS) | 78% | 71% |  |  |
| AGGCCACAGTGGCAACAGAG (sugars e5 d10 e5, PS) |  |  | 54% |  |
| GCACTGACATGGTAAGTCCT (sugars e5 d10 e5, PS) | 87% and 79% | 93% and 89% |  |  |
| TAATTTCTTTTAAATAACCC (sugars e5 d10 e5, PS) |  |  | 0% |  |
| TGGGAACTATCACACCACCT (sugars e5 d10 e5, PS) | 53% and 65% | 90% and 94% |  |  |
| CACCTGCTTGTACACTTCAT (sugars e5 d10 e5, PS) | 59% | 90% |  |  |
| TTGCCAGGCATGGAGCTCAG (sugars e5 d10 e5, PS) |  |  | 37% |  |
| GCTGCATCCATGTCATCAGC (sugars e5 d10 e5, PS) |  |  | 43% |  |
| CAGCTAATGATACAAGGTTG (sugars e5 d10 e5, PS) |  |  | 55% |  |
| CCATGTCAGAGAGGCTCAGC (sugars e5 d10 e5, PS) | 45% | 86% |  |  |
| GTTGCAATGTTGCCATC (sugars e3 d10 e4, PS) | 69% and 75% | 89% and 96% |  |  |
| GTAAGCCTCGGTGTCCTCTC (sugars e5 d10 e5, PS) | 91% | 85% |  |  |
| GCATTCTTGCCAGGCATGGA (sugars e5 d10 e5, PS) | 41% | 74% |  |  |
| TCTTCTGGACCCATCGGCCC (sugars e5 d10 e5, PS) |  |  | 37% |  |
| GTCAGCAGGTTGTGTGTCTT (sugars e5 d10 e5, PS) | 30% | 76% | 64% and 59% | 93% |
| CAGCACTGACATGGTAAGTC (sugars e5 d10 e5, PS) | 79% and 69% | 92% and 97% |  |  |
| TTTGAAATCCAATGCACCTT (sugars e5 d10 e5, PS) | 63% | 96% |  |  |
| CCATGTCAGAGAGGCTC (sugars e3 d10 e4, PS) | 81% and 76% |  |  |  |
| CACCATAATCTGCACAGGTT (sugars e5 d10 e5, PS) | 86% and 94% | 88% and 93% |  |  |
| ATAGCATTGCCACTCCCATT (sugars e3 d14 e3, PS) |  |  | 71% |  |
| TAGCATTGCCACTCCCATTC (sugars e5 d10 e5, PS) |  |  | 71% |  |

| Sequence | target mRNA inhibition (HepG2, 2.5 µM) | target mRNA inhibition (HepG2, 10 µM) | target mRNA inhibition (HepG2, 0.12 µM) | target mRNA inhibition (HepG2, 20 µM) |
| --- | --- | --- | --- | --- |
| GTGGTCTGGGAACAGCAGCA (sugars e5 d10 e5, PS) | 72% and 61% | 66% and 72% |  |  |
| TGCAGGCCCAGCACCAAGGA (sugars e5 d10 e5, PS) | 19% | 39% |  |  |
| GTTGGTCTTTTTGGCTGCCC (sugars e5 d10 e5, PS) | 77% and 67% | 88% and 86% |  |  |
| GTCAAACACCAGCCAAGTGA (sugars e5 d10 e5, PS) |  |  | 15% |  |
| CACACAGCCCAGTTTCGGAC (sugars e5 d10 e5, PS) |  |  | 24% |  |
| GCAATGTTGCCATCATA (sugars e3 d10 e4, PS) | 69% and 76% | 90% and 95% |  |  |
| GGTCTTTTTGGCTGCCCTGC (sugars e5 d10 e5, PS) | 81% and 84% | 87% and 90% |  |  |
| AGGCACCTGTTACTACATGT (sugars e5 d10 e5, PS) | 78% | 93% and 91% |  |  |
| TTAAGGGTTCATGGATCCCC (sugars e5 d10 e5, PS) | 63% and 75% and 79% | 91% and 93% |  |  |
| GGACCCACTGGAGCACTGAG (sugars e3 d14 e3, PS) | 29% | 42% | 82% | 71% |
| TTTCTAGGGAAGCATGTGCA (sugars e5 d10 e5, PS) | 67% and 68% | 90% and 88% |  |  |
| TCATACTTACTGTTCAGCAG (sugars e5 d10 e5, PS) | 74% and 65% | 93% and 89% |  |  |
| AGCTCATGAGAAGCTTAGAA (sugars e5 d10 e5, PS) | 62% | 82% |  |  |
| TCACCAGCTGGATGGGAAAG (sugars e5 d10 e5, PS) |  |  | 22% |  |
| CAGCAGGTTGTGTGTCTTCA (sugars e2 d13 e5, PS) |  |  | 57% |  |
| GCCACTCAGCCTTGGAGCCA (sugars e5 d10 e5, PS) | 90% and 83% | 86% and 85% |  |  |
| CCACTGGAGCACTGAGATGA (sugars e5 d10 e5, PS) |  |  | 71% |  |
| AGCCCTCCTCGAAGATCACC (sugars e5 d10 e5, PS) |  |  | 39% |  |
| CCTCTTAGAAGTAATGCTTC (sugars e5 d10 e5, PS) | 83% and 78% | 92% and 90% |  |  |
| GCCTGGACAAGTCCTGCCCA (sugars e5 d10 e5, PS) |  |  | 70% and 86% | 81% and 88% |
| GCTGTGATGACTTCCCAGGG (sugars e5 d10 e5, PS) | 75% | 86% |  |  |

| Sequence | target mRNA inhibition (HepG2, 2.5 µM) | target mRNA inhibition (HepG2, 10 µM) | target mRNA inhibition (HepG2, 0.12 µM) | target mRNA inhibition (HepG2, 20 µM) |
| --- | --- | --- | --- | --- |
| ACTTTTTCCTTCTTAAAAAA (sugars e5 d10 e5, PS) |  |  | 0% |  |
| GCGACAGCCCTGTGCCAGCC (sugars e5 d10 e5, PS) | 72% | 99% |  |  |
| AGGGCACCAGCCCCCAGGTG (sugars e5 d10 e5, PS) |  |  | 29% |  |
| AACTTAGGCATGCTTCCTCC (sugars e5 d10 e5, PS) | 44% | 89% |  |  |
| GGGTCAAGGTCACTCAGCCA (sugars e5 d10 e5, PS) |  |  | 33% |  |
| GCACCATTTTCACAAGGAGA (sugars e5 d10 e5, PS) | 79% and 72% | 85% and 81% |  |  |
| GATGGCACTGCAGGCCACTC (sugars e5 d10 e5, PS) |  |  | 28% |  |
| AGCTTCACCAGGGCCTCCAT (sugars e5 d10 e5, PS) |  |  | 42% |  |
| GCCATCATACTAGACTATGC (sugars e5 d10 e5, PS) | 88% and 81% | 91% and 90% |  |  |
| ATAGTTCCTGGTGGTCAGCA (sugars e5 d10 e5, PS) |  |  | 46% |  |
| CAGATACCTCCAGACATCAG (sugars e5 d10 e5, PS) |  |  | 38% |  |
| TAACCCACAGACACCCATGA (sugars e5 d10 e5, PS) |  |  | 14% |  |
| CCTCTCCTGTTTGATGGGTA (sugars e5 d10 e5, PS) | 78% and 85% and 87% | 91% and 78% and 88% |  |  |
| GGGCAAAAAGTGAATCATCT (sugars e5 d10 e5, PS) | 39% | 72% |  |  |
| GGTTGTGTGTCTTCACCAGC (sugars e3 d14 e3, PS) |  |  | 70% |  |
| AAAAGGAGTTTGTGTTTCCC (sugars e5 d10 e5, PS) | 84% and 86% | 92% and 95% |  |  |
| TCACCAGGGCCTCCATGTAC (sugars e3 d14 e3, PS) |  |  | 68% |  |
| ACCCCGGAGTAGGCGGCTAT (sugars e5 d10 e5, PS) |  |  | 46% |  |
| CATACTAGACTATGCAGCCT (sugars e5 d10 e5, PS) | 89% and 69% | 97% and 93% |  |  |
| GTGCTCTCCAACTCCTCCCC (sugars e5 d10 e5, PS) |  |  | 34% |  |
| GGAGGAGTTCTCGAATATCC (sugars e5 d10 e5, PS) | 84% | 74% |  |  |
